In the supplement of paper PMC10627819:

How the values were obtained:
B. subtilis 168 [1] = experiment: fitness (endpoint OD595 vs no drug) (fraction); higher = more growth
Outline: (§1)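 Cultures at OD595 0.01 were dispensed into 384-well plates in TSB, LB Lennox or CY and incubated at 37 °C. Every 30 min for 14 h, OD595 was read and corrected by the first reading. Fitness is the optical density at entry into stationary phase relative to the robust mean of no-drug control wells, capped at 1.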

S. pneumoniae D39V [2] = experiment: as above
Outline: as §1

B. subtilis 168 [3] = experiment: Bliss interaction score (quartile over a dose matrix) (fitness difference); higher = more antagonism (negative = synergy)
Outline: (§2)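 Quartiles of the Bliss score were taken over technical, biological and donor/recipient replicates. That score is observed fitness minus the product of the single-drug fitness values, which were inferred from combination data. Fitness itself is OD595 at entry into stationary phase divided by the plate's robust no-drug mean, with a cap at 1.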

S. aureus DSM 20231 = experiment: as above
Outline: as §2

S. aureus Newman = experiment: as above
Outline: as §2

S. pneumoniae D39V [4] = experiment: as above
Outline: as §2
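Wherever Bliss interaction score (quartile over a dose matrix) is given: first quartile when negative (synergy) and third quartile when positive (antagonism).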

CO/N=C(\C(=O)N[C@@H]1C(=O)N2C(C(=O)O)=C(COC(C)=O)CS[C@H]12)c1csc(N)n1 [Cefotaxime] + CCC(C)C1C(=O)NC(=C)C(=O)NC(C(=O)NC(CSCC(C(=O)N1)NC(=O)/C(=C/C)/NC(=O)C(C(C)CC)N)C(=O)NC2C(SCC(NC(=O)CNC(=O)C3CCCN3C2=O)C(=O)NC(CCCCN)C(=O)NC4C(SCC(NC(=O)CNC(=O)C(NC(=O)C(NC(=O)C(NC(=O)CNC4=O)C)CC(C)C)CCSC)C(=O)NC(CC(=O)N)C(=O)NC(CCSC)C(=O)NC(CCCCN)C(=O)NC5C(SCC6C(=O)NC(C(=O)NC(CSC(C(C(=O)N6)NC(=O)C(NC5=O)C)C)C(=O)NC(CO)C(=O)NC(C(C)CC)C(=O)NC(CC7=CN=CN7)C(=O)NC(C(C)C)C(=O)NC(=C)C(=O)NC(CCCCN)C(=O)O)CC8=CN=CN8)C)C)C)CC(C)C [Nisin]
B. subtilis 168 [1], one replicate, main component drawn
Conditions | fitness
first compound 0.00775 µg/mL, partner 0.5 µg/mL | 0.825
first compound 0.00775 µg/mL, partner 1 µg/mL | 0.74
first compound 0.00775 µg/mL, partner 2 µg/mL | 0.508
first compound 0.0155 µg/mL, partner 0.5 µg/mL | 0.704
first compound 0.0155 µg/mL, partner 1 µg/mL | 0.605
first compound 0.0155 µg/mL, partner 2 µg/mL | 0.434
first compound 0.031 µg/mL, partner 0.5 µg/mL | 0.513
first compound 0.031 µg/mL, partner 1 µg/mL | 0.432
first compound 0.031 µg/mL, partner 2 µg/mL | 0.251
first compound 0.0625 µg/mL, partner 1.25 µg/mL | 0.397
first compound 0.0625 µg/mL, partner 1.6 µg/mL | 0.18
first compound 0.0625 µg/mL, partner 2.5 µg/mL | 0.0546
first compound 0.0625 µg/mL, partner 3.2 µg/mL | 0.0399
first compound 0.0625 µg/mL, partner 5 µg/mL | 0.0497
first compound 0.0625 µg/mL, partner 6.4 µg/mL | 0.0827
first compound 0.125 µg/mL, partner 1.25 µg/mL | 0.176
first compound 0.125 µg/mL, partner 1.6 µg/mL | 0.0847
first compound 0.125 µg/mL, partner 2.5 µg/mL | 0.0355
first compound 0.125 µg/mL, partner 3.2 µg/mL | 0.0507
first compound 0.125 µg/mL, partner 5 µg/mL | 0.0352
first compound 0.125 µg/mL, partner 6.4 µg/mL | 0.0748
first compound 0.25 µg/mL, partner 1.25 µg/mL | 0.109
first compound 0.25 µg/mL, partner 1.6 µg/mL | 0.0456
first compound 0.25 µg/mL, partner 2.5 µg/mL | 0.0476
first compound 0.25 µg/mL, partner 3.2 µg/mL | 0.0432
first compound 0.25 µg/mL, partner 5 µg/mL | 0.0316
first compound 0.25 µg/mL, partner 6.4 µg/mL | 0.0433
first compound 0.5 µg/mL, partner 0.5 µg/mL | 0.105
first compound 0.5 µg/mL, partner 1 µg/mL | 0.0334
first compound 0.5 µg/mL, partner 2 µg/mL | 0.0461
first compound 0.5 µg/mL, partner 4 µg/mL | 0.0435
first compound 0.5 µg/mL, partner 8 µg/mL | 0.0411
first compound 0.5 µg/mL, partner 16 µg/mL | 0.025
first compound 1 µg/mL, partner 0.5 µg/mL | 0.0988
first compound 1 µg/mL, partner 1 µg/mL | 0.0354
first compound 1 µg/mL, partner 2 µg/mL | 0.0395
first compound 1 µg/mL, partner 4 µg/mL | 0.0388
first compound 1 µg/mL, partner 8 µg/mL | 0.0243
first compound 1 µg/mL, partner 16 µg/mL | 0.0126
first compound 2 µg/mL, partner 0.5 µg/mL | 0.0708
first compound 2 µg/mL, partner 1 µg/mL | 0.0361
first compound 2 µg/mL, partner 2 µg/mL | 0.0552
first compound 2 µg/mL, partner 4 µg/mL | 0.0578
first compound 2 µg/mL, partner 8 µg/mL | 0.0592
first compound 2 µg/mL, partner 16 µg/mL | 0.0351

fitness, S. pneumoniae D39V [2], main component drawn
Conditions | partner 0.4275 µg/mL | partner 0.855 µg/mL | partner 1.6 µg/mL | partner 1.71 µg/mL | partner 3.2 µg/mL | partner 6.4 µg/mL
first compound 0.0018 µg/mL | 0.995 | ≥ 1 | 0.0249 | 0.0807 | 0.0291 | 0.0188
first compound 0.0035 µg/mL | 0.896 | 0.936 | 0.0152 | 0.0712 | 0.0408 | 0.0145
first compound 0.007 µg/mL | 0.835 | 0.577 | 0.0188 | 0.0886 | 0.0158 | 0.0145

main component drawn
Conditions | Bliss interaction score
B. subtilis 168 [3] | -0.0392
S. aureus DSM 20231 | -0.199
S. aureus Newman | -0.0293
S. pneumoniae D39V [4] | -0.051

C[C@H]1c2cccc(O)c2C(=O)C2=C(O)[C@]3(O)C(=O)C(C(N)=O)=C(O)[C@@H](N(C)C)[C@@H]3[C@@H](O)[C@@H]21 [Doxycycline] + CN(C)c1cc(NC(=O)CNC(C)(C)C)c(O)c2c1C[C@H]1C[C@H]3[C@H](N(C)C)C(O)=C(C(N)=O)C(=O)[C@@]3(O)C(O)=C1C2=O [Tigecycline]
Conditions | fitness
B. subtilis 168 [1], first compound 0.02 µg/mL, partner 0.039 µg/mL | 0.94
B. subtilis 168 [1], first compound 0.02 µg/mL, partner 0.078 µg/mL | 0.818
B. subtilis 168 [1], first compound 0.02 µg/mL, partner 0.156 µg/mL | 0.85
B. subtilis 168 [1], first compound 0.04 µg/mL, partner 0.039 µg/mL | 0.824
B. subtilis 168 [1], first compound 0.04 µg/mL, partner 0.078 µg/mL | 0.773
B. subtilis 168 [1], first compound 0.04 µg/mL, partner 0.156 µg/mL | 0.792
B. subtilis 168 [1], first compound 0.08 µg/mL, partner 0.078 µg/mL | 0.619
B. subtilis 168 [1], first compound 0.08 µg/mL, partner 0.156 µg/mL | 0.635
S. pneumoniae D39V [2], first compound 0.0155 µg/mL, partner 0.65 µg/mL | 0.969
S. pneumoniae D39V [2], first compound 0.0155 µg/mL, partner 1.3 µg/mL | 0.922
S. pneumoniae D39V [2], first compound 0.0155 µg/mL, partner 2.6 µg/mL | 0.903
S. pneumoniae D39V [2], first compound 0.031 µg/mL, partner 0.65 µg/mL | 0.902
S. pneumoniae D39V [2], first compound 0.031 µg/mL, partner 1.3 µg/mL | 0.831
S. pneumoniae D39V [2], first compound 0.031 µg/mL, partner 2.6 µg/mL | 0.796
S. pneumoniae D39V [2], first compound 0.062 µg/mL, partner 0.65 µg/mL | 0.885
S. pneumoniae D39V [2], first compound 0.062 µg/mL, partner 1.3 µg/mL | 0.773
S. pneumoniae D39V [2], first compound 0.062 µg/mL, partner 2.6 µg/mL | 0.732

fitness, one replicate
Conditions | partner 0.125 µg/mL | partner 0.25 µg/mL | partner 0.5 µg/mL | partner 0.65 µg/mL | partner 1.3 µg/mL | partner 2.6 µg/mL
B. subtilis 168 [1], first compound 0.02 µg/mL | 0.99 | 0.873 | 0.962 | – | – | –
B. subtilis 168 [1], first compound 0.04 µg/mL | 0.994 | 0.849 | 0.895 | – | – | –
B. subtilis 168 [1], first compound 0.08 µg/mL | 0.761 | 0.611 | 0.697 | – | – | –
S. pneumoniae D39V [2], first compound 0.003875 µg/mL | – | – | – | ≥ 1 | ≥ 1 | ≥ 1
S. pneumoniae D39V [2], first compound 0.00775 µg/mL | – | – | – | 1 | 0.963 | 0.954

Conditions | Bliss interaction score
B. subtilis 168 [3] | 0.0765
S. aureus DSM 20231 | -0.104
S. aureus Newman | -0.0649
S. pneumoniae D39V [4] | 0.0303

O=C(O)c1cn(C2CC2)c2cc(N3CCNCC3)c(F)cc2c1=O [Ciprofloxacin] + CCC[C@@H]1C[C@@H](C(=O)N[C@@H]([C@H]2O[C@H](SC)[C@H](O)[C@@H](O)[C@H]2O)[C@@H](C)O)N(C)C1 [Lincomycin]
fitness
Conditions | partner 0.1 µg/mL | partner 0.2 µg/mL | partner 0.215 µg/mL | partner 0.4 µg/mL | partner 0.43 µg/mL | partner 0.8 µg/mL | partner 0.86 µg/mL
B. subtilis 168 [1], first compound 0.0098 µg/mL | 0.876 | 0.814 | – | 0.9 | – | – | –
B. subtilis 168 [1], first compound 0.0195 µg/mL | 0.713 | 0.751 | – | 0.763 | – | – | –
S. pneumoniae D39V [2], first compound 0.125 µg/mL | – | 0.564 | 0.801 | 0.323 | 0.722 | 0.0204 | 0.469
S. pneumoniae D39V [2], first compound 0.25 µg/mL | – | – | 0.789 | – | 0.701 | – | 0.517
S. pneumoniae D39V [2], first compound 0.5 µg/mL | – | 0.46 | 0.674 | 0.292 | 0.618 | 0.0616 | 0.318

fitness, one replicate
Conditions | partner 0.2 µg/mL | partner 0.4 µg/mL | partner 0.8 µg/mL | partner 1.6 µg/mL
B. subtilis 168 [1], first compound 0.0098 µg/mL | – | – | 0.943 | 0.926
B. subtilis 168 [1], first compound 0.0195 µg/mL | – | – | 0.745 | 0.767
B. subtilis 168 [1], first compound 0.039 µg/mL | – | – | 0.486 | 0.674
S. pneumoniae D39V [2], first compound 0.25 µg/mL | 0.404 | 0.256 | 0 | –

Conditions | Bliss interaction score
B. subtilis 168 [3] | 0.169
S. aureus DSM 20231 | 0.208
S. aureus Newman | 0.119
S. pneumoniae D39V [4] | 0.0743

C[C@H]1c2cccc(O)c2C(=O)C2=C(O)[C@]3(O)C(=O)C(C(N)=O)=C(O)[C@@H](N(C)C)[C@@H]3[C@@H](O)[C@@H]21 [Doxycycline] + CC(C1CCC(C(O1)OC2C(CC(C(C2O)OC3C(C(C(CO3)(C)O)NC)O)N)N)N)NC [Gentamicin]
main component drawn
Conditions | fitness
B. subtilis 168 [1], first compound 0.02 µg/mL, partner 0.0625 µg/mL | 0.896
B. subtilis 168 [1], first compound 0.04 µg/mL, partner 0.0625 µg/mL | 0.747
B. subtilis 168 [1], first compound 0.08 µg/mL, partner 0.25 µg/mL | 0.0845
S. pneumoniae D39V [2], first compound 0.0155 µg/mL, partner 2 µg/mL | 0.885
S. pneumoniae D39V [2], first compound 0.0155 µg/mL, partner 4 µg/mL | 0.857
S. pneumoniae D39V [2], first compound 0.0155 µg/mL, partner 8 µg/mL | 0.824

fitness, S. pneumoniae D39V [2], one replicate, main component drawn
Conditions | partner 2 µg/mL | partner 4 µg/mL | partner 8 µg/mL
first compound 0.003875 µg/mL | ≥ 1 | ≥ 1 | ≥ 1
first compound 0.00775 µg/mL | ≥ 1 | 0.995 | 0.967

main component drawn
Conditions | Bliss interaction score
B. subtilis 168 [3] | 0.213
S. aureus DSM 20231 | 0.067
S. aureus Newman | 0.0873
S. pneumoniae D39V [4] | -0.208
